Test results reported in US20040023972A1, “Use of substituted imidazo[1,2-a]-pyridin-, -pyrimidin-and-pyrazin-3-yl-amine derivatives in the preparation of medicaments for inhibiting NOS” (Gruenenthal GmbH, priority 2000, published 2004).

Each compound was assayed against T1, NO synthase (Rattus norvegicus, UniProt P29476) (assay: HTS-NOS assay (NOS assay): conversion of radioactive arginine, cation-exchanger filter plate). Settings: 10 μM.
T1 construct: the supernatant was then removed by decantation and frozen in portions at −80° C; from tissue; host or cells: rat cerebellum, 20,000 g supernatant of homogenate
Format: biochemical
Description: This assay enables the percentage inhibition of NO synthase by an active ingredient to be determined by measuring the NOS activity under the action of the active ingredient. NO synthase is mixed together with radioactively labelled arginine and the active ingredient under suitable conditions. After terminating the NO-forming reaction at a given time, the amount of unconverted arginine is determined directly or indirectly. A comparison of that amount with the amount of arginine that remains in a mixture of NOS and arginine without the addition of active ingredient and under otherwise identical conditions gives the % inhibition of NO synthase by the tested active ingredient. This assay can be carried out as follows:
(a) incubation of NO synthase with labelled arginine as substrate in a reaction vessel,
(b) separation of the labelled arginine from the labelled citrulline optionally formed as a product of the enzymatic reaction, at a time at which the citrulline concentration is increasing,
(c) measurement of the amount of arginine remaining in each case.
Separation is carried out over a filter plate membrane.
This NOS assay is suitable especially for “high throughput screening” (HTS) on microtitre plates (MTP).
In this HTS-NOS assay, radioactive arginine is used as substrate. The assay volume can be chosen in the range from 25 μl to 250 μl, according to the type of microtitre plate (MTP). Depending on the source of the enzyme used, co-factors and co-enzymes are added. Incubation of the batches on this microtitre plate (assay MTP) according to step (a) is carried out at room temperature and is for 5 to 60 minutes according to the enzyme activity used (units). At the end of the incubation (step (a)), the plate is placed into a cell harvester which is equipped with a MTP having a cation-exchanger membrane as the filter base (filter MTP). All batches of the assay MTP are transferred to the filter MTP and filtered off with suction over a cation-exchanger filter plate, a paper filter charged with phosphate groups. The filter MTP is then washed with buffer or water. By means of this procedure, the arginine substrate that remains is bound to the cation exchanger, while the enzymatically formed radioactive citrulline is washed out quantitatively. After drying the filter MTP and adding scintillation liquid, the bound arginine can be counted using a scintillation counter. An uninhibited NOS reaction is reflected in low radioactivity. An inhibited enzyme reaction means that the radioactive arginine has not been converted. This means that a high level of radioactivity is found on the filter.
Rat cerebella were used as the starting tissue. The animals were anaesthetized and sacrificed, the brain tissue, the cerebellum, was removed by dissection, 1 ml of enzyme preparation buffer was added per rat cerebellum (4° C.), and disintegration was carried out using a Polytron homogeniser for 1 minute at 6000 rpm, followed by centrifugation for 15 minutes at 4° C. and 20,000 g; the supernatant was then removed by decantation and frozen in portions at −80° C. (the precipitate was discarded).
96-well MTP having a well capacity of <250 μl were used.
Pipetting sequence: see Table 1.
When the pipetting operation was complete, a cover was placed on the MTP (assay MTP), and incubation was at 25° C. (room temperature (RT)) for from 5 to 60 minutes, according to the amount and activity of the enzyme used.
The contents of the assay MTP were then transferred with the aid of a 96-well cell harvester to a 96-well cation exchanger MTP (filter MTP) and filtered off with suction. This was followed by washing once with […] of H2O (from a bath).
The plate was then dried for 1 hour at 60° C. in a drying cabinet. The underside of the filter MTP was then accurately sealed from beneath with a “back seal”. 35 μl of scintillation fluid per well were then added by means of a pipette. The upper side of the plate was also sealed with a “top seal”. […]

| SMILES | HTS-NOS assay: % inhibition (10 μM) [%] |
| --- | --- |
| C#[N+]CCCCCCNc1c(-c2ccc[nH]2)nc2cc(C)cc(C)n12 [Example 4, {6-[5,7-Dimethyl-2-(1H-pyrrol-2-yl)-imidazo[1,2-a]pyridin-3-ylamino]-hexyl}-methylidyne-ammonium] | 54 |
| Cc1cc(C)n2c(NC(C)(C)CC(C)(C)C)c(C)nc2c1 [Example 9, (1,1,3,3-Tetramethyl-butyl)-(2,5,7-trimethyl-imidazol[1,2-a]pyridin-3-yl)-amine] | 59 |
| C#[N+]CCCCCCNc1c(-c2cccnc2)nc2cc(C)ccn12 [Example 19, Methylidyne-[6-(7-methyl-2-pyridin-3-yl-imidazo[1,2-a]pyridin-3-ylamino)-hexyl]-ammonium] | 53 |

Continued, values first:

| HTS-NOS assay: % inhibition (10 μM) [%] | SMILES |
| --- | --- |
| 54 | Cc1ccn2c(NC3CCCCC3)c(-c3ccccc3C)nc2c1 [Example 10, Cyclohexyl-(7-methyl-2-o-tolyl-imidazol[1,2-a]pyridin-3-yl)-amine] |
| 57 | Cc1ccn2c(NC3CCCCC3)c(-c3ccccc3C(F)(F)F)nc2c1 [Example 13, Cyclohexyl-[7-methyl-2-(2-trifluorO-methyl-phenyl)-imidazo[1,2-a]pyridin-3-yl]-amine] |

Same assay, conditions: read-out: HTS-NOS assay: % inhibition (10 μM)

| SMILES | inhibition at 10 µM [%] |
| --- | --- |
| O=[N+]([O-])c1cccc2cn[nH]c12 [7-nitroindazole, reference compound] | 50 |
| Cc1ccn2c(NC(C)(C)C)c(-c3cccnc3)nc2c1 [Example 1, Tert-butyl-(7-methyl-2-pyridin-3-yl-imidazo[1,2-a]pyridin-3-yl)-amine] | 63 |
| Cc1cc(C)n2c(NC(C)(C)CC(C)(C)C)c(-c3ccncc3)nc2c1 [Example 3, (5,7-Dimethyl-2-pyridin-4-yl-imidazo[1,2-a]-pyridin-3-yl)-(1,1,3,3-tetramethyl-butyl)-amine] | 60 |
| COc1cccc(-c2nc3cc(C)cc(C)n3c2NC(C)(C)C)c1OC [Example 5, Tert-butyl-[2-(2,3-dimethoxy-phenyl)-5,7-dimethyl-imidazo[1,2-a]pyridin-3-yl]-amine] | 61 |
| COc1ccc(-c2nc3cc(C)ccn3c2NC(C)(C)CC(C)(C)C)cc1OC [Example 6, [2-(3,4-Dimethoxy-phenyl)-7-methyl-imidazo[1,2-a]pyridin-3-yl]-(1,1,3,3-tetramethyl-butyl)-amine] | 53 |
| Cc1cc(C)n2c(NC(C)(C)CC(C)(C)C)c(-c3ccco3)nc2c1 [Example 8, (2-Furan-2-yl-5,7-dimethyl-imidazo[1,2-a]-pyridin-3-yl)-(1,1,3,3-tetramethyl-butyl)-amine] | 52 |
| Cc1cc(C)n2c(NC(C)(C)CC(C)(C)C)c(-c3cccnc3)nc2c1 [Example 12, (5,7-Dimethyl-2-pyridin-3-yl-imidazo[1,2-a]-pyridin-3-yl)-(1,1,3,3-tetramethyl-butyl)-amine] | 61 |
| Cc1cc(C)n2c(NC(C)(C)C)c(C)nc2c1 [Example 14, Tert-butyl-(2,5,7-trimethyl-imidazo[1,2-a]-pyridin-3-yl)-amine] | 67 |
| Cc1ccn2c(NC(C)(C)CC(C)(C)C)c(-c3cccnc3)nc2c1 [Example 15, (7-Methyl-2-pyridin-3-yl-imidazo[1,2-a]-pyridin-3-yl)-(1,1,3,3-tetramethyl-butyl)-amine] | 59 |
| COC(=O)CNc1c(C)nc2cc(C)ccn12 [Example 18, (2,7-Dimethyl-imidazo[1,2-a]pyridin-3-ylamino)-acetic acid methyl ester] | 50 |
| Cc1cc(C)n2c(NC(C)(C)C)c(-c3cccc(O)c3)nc2c1 [Example 20, 3-(3-Tert-butylamino-5,7-dimethyl-imidazo[1,2-a]pyridin-2-yl)-phenol] | 64 |
| Cc1cc(C)n2c(NC(C)(C)C)c(C3CCCCC3)nc2c1 [Example 22, Tert-butyl-(2-cyclohexyl-5,7-dimethyl-imidazo[1,2-a]pyridin-3-yl)-amine] | 68 |
| Cc1cc(C)n2c(NC(C)(C)C)c(-c3ccco3)nc2c1 [Example 25, Tert-butyl-(2-furan-2-yl-5,7-dimethyl-imidazo[1,2-a]pyridin-3-yl)-amine] | 60 |
| Cc1ccn2c(NC(C)(C)CC(C)(C)C)c(-c3ccco3)nc2c1 [Example 28, (2-Furan-2-yl-7-methyl-imidazo[1,2-a]-pyridin-3-yl)-(1,1,3,3-tetramethyl-butyl)-amine] | 50 |
| Cc1ccn2c(NC(C)(C)CC(C)(C)C)c(-c3ccncc3)nc2c1 [Example 29, (7-Methyl-2-pyridin-4-yl-imidazo[1,2-a]-pyridin-3-yl)-(1,1,3,3-tetramethyl-butyl)-amine] | 69 |
| Cc1cc(C)n2c(NC(C)(C)CC(C)(C)C)c(-c3cccc(O)c3)nc2c1 [Example 31, 3-[5,7-Dimethyl-3-(1,1,3,3-tetramethyl-butylamino)-imidazo[1,2-a]pyridin-2-yl]-phenol] | 60 |
| Cc1cc(C)n2c(Nc3c(C)cccc3C)c(-c3ccccc3C)nc2c1 [Example 32, (2,6-Dimethyl-phenyl)-(5,7-dimethyl-2-o-tolyl-imidazo[1,2-a]pyridin-3-yl)-amine] | 59 |

The remaining lines, values ahead:

| inhibition at 10 µM [%] | SMILES |
| --- | --- |
| 62 | Cc1cc(C)n2c(NC3CCCCC3)c(-c3ccncc3)nc2c1 [Example 2, Cyclohexyl-(5,7-dimethyl-2-pyridin-4-yl-imidazo[1,2-a]pyridin-3-yl)-amine] |
| 65 | Cc1ccn2c(NC3CCCCC3)c(-c3ccncc3)nc2c1 [Example 7, Cyclohexyl-(7-methyl-2-pyridin-4-yl-imidazo[1,2-a]pyridin-3-yl)-amine] |
| 60 | Cc1ccn2c(NC3CCCCC3)c(-c3cccs3)nc2c1 [Example 11, Cyclohexyl-(7-methyl-2-thiophen-2-yl-imidazo[1,2-a]pyridin-3-yl)-amine] |
| 56 | Cc1ccn2c(NC3CCCCC3)c(-c3cccc4ccccc34)nc2c1 [Example 16, Cyclohexyl-(7-methyl-2-naphthalen-1-yl-imidazo[1,2-a]pyridin-3-yl)-amine] |
| 51 | Cc1ccn2c(NC(C)(C)CC(C)(C)C)c(-c3ccccc3F)nc2c1 [Example 17, [2-(2-Fluoro-phenyl)-7-methyl-imidazo[1,2-a]pyridin-3-yl]-(1,1,3,3-tetramethyl-butyl)-amine] |
| 53 | Cc1ccn2c(NC3CCCCC3)c(-c3ccccc3F)nc2c1 [Example 21, Cyclohexyl-(2-(2-fluoro-phenyl)-7-methyl-imidazo[1,2-a]pyridin-3-yl]-amine] |
| 74 | Cc1ccn2c(NC3CCCCC3)c(-c3cccnc3)nc2c1 [Example 23, Cyclohexyl-(7-methyl-2-pyridin-3-yl-imidazo[1,2-a]pyridin-3-yl)-amine] |
| 59 | Cc1ccn2c(NC(C)(C)C)c(-c3cccc(O)c3)nc2c1 [Example 24, 3-(3-Tert-butylamino-7-methyl-imidazo[1,2-a]pyridin-2-yl)-phenol] |
| 62 | Cc1cc(C)n2c(NC3CCCCC3)c(-c3ccco3)nc2c1 [Example 26, Cyclohexyl-(2-furan-2-yl-5,7-dimethyl-imidazo[1,2-a]pyridin-3-yl)-amine] |
| 62 | Cc1cc(C)n2c(NC3CCCCC3)c(-c3cccnc3)nc2c1 [Example 27, Cyclohexyl-(5,7-dimethyl-2-pyridin-3-yl-imidazo[1,2-a]pyridin-3-yl)-amine] |
| 56 | CCCCNc1c(C2CCCCC2)nc2cc(C)ccn12 [Example 30, Butyl-(2-cyclohexyl-7-methyl-imidazo[1,2-a]pyridin-3-yl)-amine] |
| 67 | Cc1ccn2c(NC(C)(C)C)c(-c3cccc4ccccc34)nc2c1 [Example 33, Tert-butyl-(7-methyl-2-naphthalen-1-yl-imidazo[1,2-a]pyridin-3-yl)-amine] |
